One experiment concerns the target Stromelysin-1 (Homo sapiens, UniProt P08254). Kind of experiment: Inhibition of matrix metalloprotease-3.
The target in experiment [1] is 72 kDa type IV collagenase (Homo sapiens, UniProt P08253). In words: (§1) Inhibition of matrix metalloprotease-2.
For experiment [2], the target named is Matrix metalloproteinase-9 (Homo sapiens, UniProt P14780). In words: Inhibition of matrix metalloprotease-9.
For the next experiment, the target named is T1, Interstitial collagenase (Homo sapiens, UniProt P03956).
T1 sequence (P03956 whole entry): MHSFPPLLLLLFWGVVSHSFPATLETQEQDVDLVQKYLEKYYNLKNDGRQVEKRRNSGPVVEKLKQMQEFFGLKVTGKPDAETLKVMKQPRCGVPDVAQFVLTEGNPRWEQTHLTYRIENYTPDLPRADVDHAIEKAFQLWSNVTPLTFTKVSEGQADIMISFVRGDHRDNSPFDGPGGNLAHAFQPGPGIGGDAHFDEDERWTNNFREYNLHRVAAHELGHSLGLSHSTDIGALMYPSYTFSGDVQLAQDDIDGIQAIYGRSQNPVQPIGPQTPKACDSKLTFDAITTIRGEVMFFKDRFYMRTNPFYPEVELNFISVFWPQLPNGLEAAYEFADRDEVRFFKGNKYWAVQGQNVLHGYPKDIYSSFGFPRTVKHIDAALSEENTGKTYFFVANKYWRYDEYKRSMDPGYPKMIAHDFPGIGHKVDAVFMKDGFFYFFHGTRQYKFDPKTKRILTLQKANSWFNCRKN
Kind of experiment: Inhibition of matrix metalloprotease-1.

In the next experiment the target is Collagenase 3 (Homo sapiens, UniProt P45452). Kind of experiment: Inhibition of matrix metalloprotease-13.
For experiment [3], the target named is Matrix metalloproteinase-9 (Mus musculus, UniProt P41245). Kind of experiment: Inhibitory concentration required against matrix metalloprotease-9 (MMP-9 gelatinase B).
Experiment [4] concerns the target 72 kDa type IV collagenase (Mus musculus, UniProt P33434). Described as §1.

The record followed here is ChEMBL document CHEMBL1132530, “Picking the S1, S1' and S2' pockets of matrix metalloproteinases. A niche for potent acyclic sulfonamide inhibitors” (Bioorg Med Chem Lett, 1999).

Broadly, the IC50 is the concentration that inhibits the measured activity by half. A high value points to a need for much substance.

Sequence of Matrix metalloproteinase-9 (Mus musculus, UniProt P41245) (P41245 whole entry): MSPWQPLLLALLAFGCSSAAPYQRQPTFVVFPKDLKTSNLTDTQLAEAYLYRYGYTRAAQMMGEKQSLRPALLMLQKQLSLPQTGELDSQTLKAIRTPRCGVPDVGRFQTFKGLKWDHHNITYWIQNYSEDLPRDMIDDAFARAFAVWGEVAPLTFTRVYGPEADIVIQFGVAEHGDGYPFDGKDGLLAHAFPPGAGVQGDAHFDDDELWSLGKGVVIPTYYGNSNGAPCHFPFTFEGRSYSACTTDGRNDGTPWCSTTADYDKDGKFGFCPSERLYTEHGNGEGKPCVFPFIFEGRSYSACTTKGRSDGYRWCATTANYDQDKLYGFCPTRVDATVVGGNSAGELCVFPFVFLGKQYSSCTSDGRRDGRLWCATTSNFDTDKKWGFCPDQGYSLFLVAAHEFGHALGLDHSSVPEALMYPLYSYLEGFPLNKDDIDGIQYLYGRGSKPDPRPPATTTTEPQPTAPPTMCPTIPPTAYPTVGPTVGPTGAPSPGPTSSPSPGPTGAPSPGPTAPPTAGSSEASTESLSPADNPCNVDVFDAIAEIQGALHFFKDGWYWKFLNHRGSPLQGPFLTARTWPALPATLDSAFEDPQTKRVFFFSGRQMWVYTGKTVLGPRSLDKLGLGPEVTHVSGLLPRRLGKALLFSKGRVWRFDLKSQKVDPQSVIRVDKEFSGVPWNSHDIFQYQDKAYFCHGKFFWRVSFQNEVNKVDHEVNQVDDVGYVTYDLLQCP
Sequence of Stromelysin-1 (P08254 whole entry): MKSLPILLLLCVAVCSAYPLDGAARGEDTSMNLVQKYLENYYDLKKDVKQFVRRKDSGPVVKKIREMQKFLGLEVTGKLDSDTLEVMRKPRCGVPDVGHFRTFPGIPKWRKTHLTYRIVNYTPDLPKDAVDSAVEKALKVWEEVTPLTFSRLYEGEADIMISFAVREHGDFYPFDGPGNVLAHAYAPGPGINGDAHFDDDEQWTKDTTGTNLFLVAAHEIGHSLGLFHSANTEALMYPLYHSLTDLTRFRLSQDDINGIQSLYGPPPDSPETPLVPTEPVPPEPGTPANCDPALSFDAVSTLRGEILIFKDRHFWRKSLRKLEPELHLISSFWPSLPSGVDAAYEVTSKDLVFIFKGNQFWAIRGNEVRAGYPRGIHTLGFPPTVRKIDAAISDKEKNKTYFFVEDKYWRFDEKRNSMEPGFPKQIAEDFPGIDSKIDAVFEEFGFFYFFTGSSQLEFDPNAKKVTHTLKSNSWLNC
Sequence of 72 kDa type IV collagenase (Homo sapiens, UniProt P08253) (P08253 whole entry): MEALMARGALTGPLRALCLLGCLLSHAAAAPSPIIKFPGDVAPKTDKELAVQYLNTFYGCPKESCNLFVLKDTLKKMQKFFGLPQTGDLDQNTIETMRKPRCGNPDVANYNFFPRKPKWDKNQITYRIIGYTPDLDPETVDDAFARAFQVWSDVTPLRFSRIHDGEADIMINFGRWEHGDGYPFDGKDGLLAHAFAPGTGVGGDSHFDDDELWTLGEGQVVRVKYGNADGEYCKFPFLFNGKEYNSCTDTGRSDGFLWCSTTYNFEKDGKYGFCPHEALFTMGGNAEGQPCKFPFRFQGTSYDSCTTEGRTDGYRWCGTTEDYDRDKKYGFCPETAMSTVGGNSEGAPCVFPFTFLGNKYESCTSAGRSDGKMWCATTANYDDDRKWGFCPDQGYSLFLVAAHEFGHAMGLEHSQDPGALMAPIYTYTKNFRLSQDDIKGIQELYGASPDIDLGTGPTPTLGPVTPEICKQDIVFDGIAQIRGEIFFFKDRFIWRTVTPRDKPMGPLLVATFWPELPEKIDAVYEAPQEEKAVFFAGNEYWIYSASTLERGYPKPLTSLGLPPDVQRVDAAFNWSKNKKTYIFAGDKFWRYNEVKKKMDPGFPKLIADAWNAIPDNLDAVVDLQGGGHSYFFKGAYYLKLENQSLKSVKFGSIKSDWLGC
Sequence of 72 kDa type IV collagenase (Mus musculus, UniProt P33434) (P33434 whole entry): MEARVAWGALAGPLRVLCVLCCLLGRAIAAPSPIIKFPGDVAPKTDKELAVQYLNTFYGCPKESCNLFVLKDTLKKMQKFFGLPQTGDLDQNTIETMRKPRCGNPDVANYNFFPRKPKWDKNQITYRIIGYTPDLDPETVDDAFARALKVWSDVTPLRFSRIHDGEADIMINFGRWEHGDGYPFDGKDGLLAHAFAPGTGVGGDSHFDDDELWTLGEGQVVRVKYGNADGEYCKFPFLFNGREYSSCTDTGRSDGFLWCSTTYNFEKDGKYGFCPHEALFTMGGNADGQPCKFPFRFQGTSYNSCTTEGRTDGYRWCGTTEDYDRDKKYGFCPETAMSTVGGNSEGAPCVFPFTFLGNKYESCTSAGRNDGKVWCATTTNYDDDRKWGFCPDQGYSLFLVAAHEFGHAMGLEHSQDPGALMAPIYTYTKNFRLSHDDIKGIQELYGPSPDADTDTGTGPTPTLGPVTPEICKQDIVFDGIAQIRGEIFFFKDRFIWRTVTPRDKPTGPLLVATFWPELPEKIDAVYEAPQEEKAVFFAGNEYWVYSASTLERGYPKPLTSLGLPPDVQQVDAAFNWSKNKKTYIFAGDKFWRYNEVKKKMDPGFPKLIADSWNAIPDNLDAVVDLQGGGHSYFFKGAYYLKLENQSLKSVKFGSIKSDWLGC
Sequence of Matrix metalloproteinase-9 (Homo sapiens, UniProt P14780) (P14780 whole entry): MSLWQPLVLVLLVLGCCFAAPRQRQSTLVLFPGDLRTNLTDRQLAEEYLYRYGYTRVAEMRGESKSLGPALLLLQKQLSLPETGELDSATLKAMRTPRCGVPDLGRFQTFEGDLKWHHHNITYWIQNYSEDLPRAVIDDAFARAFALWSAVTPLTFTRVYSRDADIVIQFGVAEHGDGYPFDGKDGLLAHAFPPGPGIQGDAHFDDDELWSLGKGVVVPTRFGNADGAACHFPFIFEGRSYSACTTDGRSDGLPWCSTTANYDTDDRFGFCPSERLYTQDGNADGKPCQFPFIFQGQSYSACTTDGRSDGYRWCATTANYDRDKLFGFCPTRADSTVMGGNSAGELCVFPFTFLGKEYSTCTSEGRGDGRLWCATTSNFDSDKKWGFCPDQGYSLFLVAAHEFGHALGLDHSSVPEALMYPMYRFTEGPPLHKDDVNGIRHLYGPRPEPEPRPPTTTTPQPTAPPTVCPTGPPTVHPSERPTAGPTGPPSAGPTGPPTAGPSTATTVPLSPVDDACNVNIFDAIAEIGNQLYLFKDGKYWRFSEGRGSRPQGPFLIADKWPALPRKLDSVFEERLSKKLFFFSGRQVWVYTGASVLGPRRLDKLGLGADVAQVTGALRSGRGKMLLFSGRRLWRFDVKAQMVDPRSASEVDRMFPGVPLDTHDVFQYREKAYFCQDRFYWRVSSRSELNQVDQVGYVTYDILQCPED

Regarding `COc1ccc(S(=O)(=O)N(CC(C)C)[C@@H](CCSCc2ccc(-c3ccccc3)cc2)C(=O)NO)cc1`, the figures for the IC50 (against Stromelysin-1; in experiment [1]; in experiment [2]) were 20 nM, 30 nM and 0.2 nM, respectively.
As for `COc1ccc(S(=O)(=O)N(CC(C)C)[C@@H](CCSCc2ccccc2)C(=O)NO)cc1`, the concentration for half-maximal inhibition (IC50) is 104 nM against Interstitial collagenase; 0.7 nM against Stromelysin-1; 12 nM against Collagenase 3; 0.7 nM in experiment [1]; 2.5 nM in experiment [2].
As to `COc1ccc(S(=O)(=O)N(CC(C)C)[C@@H](CCSCc2ccc(OCc3ccccc3)cc2)C(=O)NO)cc1`, the values for the IC50 (against Stromelysin-1; in experiment [2]) were 29 nM and 8 nM, respectively.
`CC[C@@H](C(=O)NO)N(CC(C)C)S(=O)(=O)c1ccc(OC)cc1`: the concentration for half-maximal inhibition (IC50) at Interstitial collagenase was 384 nM; against Stromelysin-1 it was 45 nM; at Collagenase 3 it was 96 nM; in experiment [1], 53 nM; in experiment [2], 7 nM.
Turning to `CC(C)CN([C@@H](CCSCc1ccccc1)C(=O)NO)S(=O)(=O)c1ccc(-c2ccccc2)cc1`, the IC50 against Stromelysin-1 was 90 nM; in experiment [3] it was 2.5 nM; against Collagenase 3, 3.8 nM; in experiment [4] it was 4.1 nM.
For `COc1ccc(S(=O)(=O)N(CC(=O)NC(c2ccccc2)c2ccccc2)[C@H](CCSCc2ccccc2)C(=O)NO)cc1`, the IC50 against Stromelysin-1 was 3.7 nM; in experiment [3], 0.5 nM; against Collagenase 3, 4.5 nM; in experiment [4] it was 2.3 nM.
For the compound `CSCC[C@@H](C(=O)NO)N(CC(C)C)S(=O)(=O)c1ccc(-c2ccccc2)cc1`, the IC50 against Interstitial collagenase was found to be 156 nM; at Stromelysin-1, 37 nM; against Collagenase 3 it was 3 nM; in experiment [1], 0.7 nM; in experiment [2], 0.2 nM.
With `COc1ccc(S(=O)(=O)N(Cc2cccnc2)[C@@H](C(=O)NO)C(C)C)cc1` [CGS-27023A], the concentration for half-maximal inhibition (IC50) came out at 10 nM in experiment [3] and 15 nM in experiment [4].
